In US20220339285A1, “DISSACHARIDE FORMULATIONS FOR CONTROLLED DRUG RELEASE” (TECHNICAL UNIVERSITY OF DENMARK, priority 2019, published 2022):

Assays:
[1] = Tested solubility of APIs in carbohydrate ester gels (Example 21); conditions: in the gel formulations listed for each API in Table 8; maximal solubility may be higher than tested
Method: Compositions are given in weight percent (or weight ratio) and each compound is weighed into one vial. The mixture is placed in an ultrasonication bath at 70-80° C. for 1-2 hours and occasionally vortexed to generate homogenous solutions that is subsequently stored at 4° C. until further use. Afterwards, all active pharmaceutical ingredients (APIs) are incorporated into the gels proportionally by adding gel on top of freeze-dried APIs or combinations of freeze-dried APIs. The gel is subjected to magnetic stirring at 40-50° C. until the API or combination of APIs is completely dissolved. The gel-API mixture is transferred and stored in sealed vials at room temperature or at 4° C. Certain gel-API mixtures may be stored at −20° C.

[2] = Solubility and integrity of CLA-1 and CLA-8 in SuBen and LOIB gels (Example 22); type: physicochemical; conditions: weight percentage
Method: HPLC assay: Samples were analyzed using a Shimadzu Nexera-i instrument. […] Chromatographic separation was achieved using a gradient of 40 to 100% phase B in 10 min. Ultraviolet detection at 280 nm was used to identify the CT contrast agents. Gel samples were prepared by dilution of 50 μL gel in 1 mL MeCN, which were then diluted 10-fold in MeCN.

[3] = Experimentally obtained drug solubilities in gels; type: physicochemical
From the text: Experimentally obtained drug solubilities are given in the table (all percentages are weight %).

[4] = In vitro release of Gardiquimod and Resiquimod from SuBen gels with different co-solvents, HPLC (Example 28); type: physicochemical; conditions: 49 days; for in vitro release of Gardiquimod: 1.2 mg/g, PBS 37° C
Method: SuBen:GTO:EtOH (60:25:15 (% w/w)) and SuBen:Lipiodol:EtOH (60:25:15 (% w/w)) were prepared by simple mixing and sonication (80° C., 90-120 min) as described in example 19. […] SuBen:GTO:EtOH:PLA (60:25:15:0.5 (% w/w)), SuBen:Ethyl-palmitate:EtOH (60:25:15 (% w/w)), and SuBen:Ethyl-oleate:EtOH (60:25:15 (% w/w)) were prepared by simple mixing and sonication (80° C., 90-120 min) as described in example 19. […] The vials are closed with lids and are incubated at 37° C. At each sampling point, take 1 mL of buffer and place it inside an Eppendorf tube. Then add 1 mL of fresh buffer to replace the taken sample. The samples are analyzed by HPLC. […] For both compounds, the flowrate was 1 mL/min and the column temperature was 40° C.

[5] = In vitro release of RepSox and Galunisertib from LOIB based gels into PBS (Example 14); conditions: for cumulative release: after 14 days, 8 mg/gram in 82.5 (% w/w) LOIB gel, 100 μL in 2 ml PBS
Method: Following, 100 μL of each gel were injected in duplicates into 2 ml of PBS.

[6] = In vivo release of TGFb inhibitors from intratumoral gel depots (Example 32); conditions: 8 mg/g, 50 μL intratumoral, CT26 tumors, 7 days
Method: Animal handling: For each formulation 50 μL of gel was injected intratumorally in female Balb/c mice with CT26 tumors (Initial tumor volume of approximately 200 mm^3). The mice were sacrificed at different time points and gel samples were collected. The gels were stored at 4° C. until analysis. For each gel, four mice were sacrificed at each timepoint.
Samples were heated to 50° C. and stirred at 600 rpm to promote dissolution. The samples were subsequently filtered through 0.45 μm pore, nylon syringe filters.
HPLC method: Samples were analyzed on a Shimadzu Nexera-i HPLC. […] The solvent system consisted of mobile phase A (5% MeCN, 0.1% TFA in water) and mobile phase B (0.1% TFA in MeCN). Chromatographic separation was achieved using an optimized gradient.

[7] = Co-solubilization of R848 and RepSox in LOIB gel (Example 15); type: physicochemical; conditions: with 2.4 mg R848
Method: The mixture was solubilized using a magnetic stirring for 2 hours at 40-50° C. under continuous visual inspection.

[8] = In vitro release of DOX base from SuBen and LOIB gels, fluorescence (Example 33); type: physicochemical; conditions: 7 days at 37° C
Method: The vials were incubated at 37° C. After 7 days, 1 mL of PBS was taken and analysed by fluorescence spectroscopy.
Fluorescence spectroscopy: Fluorescence measurements were taken by a Tecan fluorescence microplate reader using 96-well, transparent Nunc plates. Sample volume was 200 μL.

[9] = gel composition e.g LOIB 82.5%, SuBen 60%

COc1ccc(CNC(=O)Nc2ncc([N+](=O)[O-])s2)cc1 [AR-A014418]
Tested solubility in gels [1]: 1 mg/g gel

O=C(OCC1OC(OC(=O)c2ccc(I)cc2)C(OC(=O)c2ccc(I)cc2)[C@@H](OC(=O)c2ccc(I)cc2)[C@@H]1O[C@@H]1OC(COC(=O)c2ccc(I)cc2)[C@H](OC(=O)c2ccc(I)cc2)[C@H](OC(=O)c2ccc(I)cc2)C1OC(=O)c1ccc(I)cc1)c1ccc(I)cc1 (stereo partly drawn) [CLA-8, α,β Lactose octa para-iodobenzoate]
CLA-8 completely solubilized in LOIB gels [2]: up to 10% | CLA-8 completely solubilized in SuBen gels [2]: up to 20%

CC1(N)CCN(c2cnc(-c3cccc(Cl)c3Cl)c(N)n2)CC1 [SHP099]
Solubility ([3]; gel composition e.g SuBen 60%): >1 mg/g gel

CCNCc1nc2c(N)nc3ccccc3c2n1CC(C)(C)O [Gardiquimod]
Solubility [3, 9]: >1.5 mg/g gel | reduction of Gardiquimod release on substitution of GTO with Lipiodol [4]: 6 fold | in vitro release of Gardiquimod ([4]; SuBen:GTO:EtOH (60:25:15) gel): 52.5% | in vitro release of Gardiquimod ([4]; SuBen:Lipiodol:EtOH (60:25:15) gel): 8.4%

Fc1ccc(Cl)cc1-c1nc(Nc2ccncc2)c2nccnc2n1 [SD-208]
Solubility ([3]; gel composition e.g SuBen 60%): >8 mg/g gel | Solubility ([3]; gel composition e.g SuBen:LOIB 35%/35%): >8 mg/g gel

Cc1cccc(-c2nn3c(c2-c2ccnc4ccc(C(N)=O)cc24)CCC3)n1 [Galunisertib]
Tested solubility in gels [1]: 8 mg/g gel | Solubility [3, 9]: >8 mg/g gel | solubilized in LOIB-based gel formulations [5]: ≥ 8 mg/gram | cumulative release [5]: 27%

Cc1cccc(-c2[nH]ncc2-c2ccc3ncccc3n2)n1 [RepSox]
in vivo release from gel depot (ranking) [6]: fastest release | Solubility [3, 9]: >8 mg/g gel | dissolved together with R848 in LOIB:GTO:EtOH (82.5:7.5:10) gel [7]: 8 mg/g | cumulative release [5]: around 40%

CCOCc1nc2c(N)nc3ccccc3c2n1CC(C)(C)O [Resiquimod (R848), Resiquimod]
Solubility [3, 9]: >10 mg/g gel

CC(C)Cn1cnc2c(N)nc3ccccc3c21 [Imiquimod]
Solubility ([3]; gel composition e.g SuBen 60%): >4.8 mg/g gel

COc1cccc2c1C(=O)c1c(O)c3c(c(O)c1C2=O)C[C@@](O)(C(=O)CO)C[C@@H]3O[C@H]1C[C@H](N)[C@H](O)[C@H](C)O1 [DOX base, doxorubicin]
release from gels into PBS [8]: released from the gels
